Measurements taken from US12486253B2, “Therapeutics for the degradation of mutant BRAF” (C4 THERAPEUTICS, INC., priority 2021, dated 2025).

Target: BRAF V600E (Homo sapiens, UniProt P15056, V600E)
Experiment: HiBiT cellular BRAF^V600E degradation assay
Assay type: cell-based
Conditions: A375.10 cells, 24 h; for DC50: concentration at which 50% of total cellular BRAF^V600E is degraded; for Emax: residual protein remaining in the cell, read-out: HiBit 24 h Emax

Sequence of BRAF V600E (P15056 whole entry V600E): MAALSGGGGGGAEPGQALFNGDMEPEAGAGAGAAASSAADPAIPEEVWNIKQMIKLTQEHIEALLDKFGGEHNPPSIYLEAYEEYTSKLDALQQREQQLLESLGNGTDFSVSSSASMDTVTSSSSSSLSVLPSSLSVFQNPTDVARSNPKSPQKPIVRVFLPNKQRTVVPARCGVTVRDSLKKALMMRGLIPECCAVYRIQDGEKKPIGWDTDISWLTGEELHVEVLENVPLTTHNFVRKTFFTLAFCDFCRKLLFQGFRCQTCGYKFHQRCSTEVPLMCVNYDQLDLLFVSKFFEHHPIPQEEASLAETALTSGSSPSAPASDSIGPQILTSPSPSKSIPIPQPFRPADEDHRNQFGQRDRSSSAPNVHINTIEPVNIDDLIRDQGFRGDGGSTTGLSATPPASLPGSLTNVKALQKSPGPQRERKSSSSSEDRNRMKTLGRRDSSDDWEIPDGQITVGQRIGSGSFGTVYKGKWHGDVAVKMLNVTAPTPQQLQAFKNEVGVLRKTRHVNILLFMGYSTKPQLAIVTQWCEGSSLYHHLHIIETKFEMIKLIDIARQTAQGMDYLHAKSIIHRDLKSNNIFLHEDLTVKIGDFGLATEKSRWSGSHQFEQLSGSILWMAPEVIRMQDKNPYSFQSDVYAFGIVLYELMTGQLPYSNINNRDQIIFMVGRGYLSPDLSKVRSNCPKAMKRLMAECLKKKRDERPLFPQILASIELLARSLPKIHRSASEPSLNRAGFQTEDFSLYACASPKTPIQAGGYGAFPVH

Row | SMILES | DC50 [nM] | Emax [%]
1 | CO[C@H]1CCN(S(=O)(=O)Nc2ccc(F)c(Oc3ccc4ncn(-c5cnc(N6CCN(C(=O)CN7CCC(c8ccc(N[C@@H]9CCC(=O)NC9=O)cc8F)CC7)CC6)nc5)c(=O)c4c3)c2C#N)C1 [Example 110, (3S)—N-[2-cyano-3-[3-[2-[4-[2-[4-[4-[[(3R)-2,6-dioxopiperidin-3-yl]amino]-2-fluorophenyl]piperidin-1-yl]acetyl]piperazin-1-yl]pyrimidin-5-yl]-4-oxoquinazolin-6-yl]oxy-4-fluorophenyl]-3-methoxypyrrolidine-1-sulfonamide] | 42.5 | 8.22
2 | CO[C@H]1CCN(S(=O)(=O)Nc2ccc(F)c(Oc3ccc4ncn(-c5cnc(N6CCN(C(=O)CN7CCC(c8ccc(N[C@H]9CCC(=O)NC9=O)cc8F)CC7)CC6)nc5)c(=O)c4c3)c2C#N)C1 [Example 111, (3S)—N-[2-cyano-3-[3-[2-[4-[2-[4-[4-[[(3S)-2,6-dioxopiperidin-3-yl]amino]-2-fluorophenyl]piperidin-1-yl]acetyl]piperazin-1-yl]pyrimidin-5-yl]-4-oxoquinazolin-6-yl]oxy-4-fluorophenyl]-3-methoxypyrrolidine-1-sulfonamide] | 18.6 | 10.3
3 | N#Cc1c(NS(=O)(=O)N2CCCCC2)ccc(F)c1Oc1ccc2ncn(-c3cnc(N4CCN(C(=O)CN5CCC(c6ccc(N[C@H]7CCC(=O)NC7=O)cc6F)CC5)CC4)nc3)c(=O)c2c1 [Example 113, N-[2-cyano-3-[3-[2-[4-[2-[4-[4-[[(3S)-2,6-dioxopiperidin-3-yl]amino]-2-fluorophenyl]piperidin-1-yl]acetyl]piperazin-1-yl]pyrimidin-5-yl]-4-oxoquinazolin-6-yl]oxy-4-fluorophenyl]piperidine-1-sulfonamide] | 29.7 | 11.1
4 | N#Cc1c(NS(=O)(=O)C2CC2)ccc(F)c1Oc1ccc2ncn(-c3cnc(N4CCN(C(=O)CN5CCC(c6ccc(N[C@@H]7CCC(=O)NC7=O)cc6F)CC5)CC4)nc3)c(=O)c2c1 [Example 115, N-[2-cyano-3-[3-[2-[4-[2-[4-[4-[[(3R)-2,6-dioxopiperidin-3-yl]amino]-2-fluorophenyl]piperidin-1-yl]acetyl]piperazin-1-yl]pyrimidin-5-yl]-4-oxoquinazolin-6-yl]oxy-4-fluorophenyl]cyclopropanesulfonamide] | 16.1 | 12.8
5 | N#Cc1c(NS(=O)(=O)N2CC[C@@H](F)C2)ccc(F)c1Oc1ccc2ncn(-c3cnc(N4CCN(C(=O)CN5CCC(c6ccc(N[C@H]7CCC(=O)NC7=O)cc6F)CC5)CC4)nc3)c(=O)c2c1 [Example 116, (3R)—N-[2-cyano-3-[3-[2-[4-[2-[4-[4-[[(3S)-2,6-dioxopiperidin-3-yl]amino]-2-fluorophenyl]piperidin-1-yl]acetyl]piperazin-1-yl]pyrimidin-5-yl]-4-oxoquinazolin-6-yl]oxy-4-fluorophenyl]-3-fluoropyrrolidine-1-sulfonamide] | 17.1 | 9.01
6 | COC1CN(S(=O)(=O)Nc2ccc(F)c(Oc3ccc4ncn(-c5cnc(N6CCN(C(=O)CN7CCC(c8ccc(N[C@H]9CCC(=O)NC9=O)cc8F)CC7)CC6)nc5)c(=O)c4c3)c2C#N)C1 [Example 117, N-[2-cyano-3-[3-[2-[4-[2-[4-[4-[[(3S)-2,6-dioxopiperidin-3-yl]amino]-2-fluorophenyl]piperidin-1-yl]acetyl]piperazin-1-yl]pyrimidin-5-yl]-4-oxoquinazolin-6-yl]oxy-4-fluorophenyl]-3-methoxyazetidine-1-sulfonamide] | 38.3 | 9.02
7 | CC(C)S(=O)(=O)Nc1ccc(F)c(Oc2ccc3ncn(-c4cnc(N5CCN(C(=O)CN6CCC(c7ccc(N[C@@H]8CCC(=O)NC8=O)cc7F)CC6)CC5)nc4)c(=O)c3c2)c1C#N [Example 118, N-[2-cyano-3-[3-[2-[4-[2-[4-[4-[[(3R)-2,6-dioxopiperidin-3-yl]amino]-2-fluorophenyl]piperidin-1-yl]acetyl]piperazin-1-yl]pyrimidin-5-yl]-4-oxoquinazolin-6-yl]oxy-4-fluorophenyl]propane-2-sulfonamide] | 18.7 | 9.98
8 | CN(CC(F)F)S(=O)(=O)Nc1ccc(F)c(Oc2ccc3ncn(-c4cnc(N5CCN(C(=O)CN6CCC(c7ccc(N[C@@H]8CCC(=O)NC8=O)cc7F)CC6)CC5)nc4)c(=O)c3c2)c1C#N [Example 119, 6-[2-cyano-3-[[2,2-difluoroethyl(methyl)sulfamoyl]amino]-6-fluorophenoxy]-3-[2-[4-[2-[4-[4-[[(3R)-2,6-dioxopiperidin-3-yl]amino]-2-fluorophenyl]piperidin-1-yl]acetyl]piperazin-1-yl]pyrimidin-5-yl]-4-oxoquinazoline] | 46.9 | 12.8
9 | CN(CC(F)F)S(=O)(=O)Nc1ccc(F)c(Oc2ccc3ncn(-c4cnc(N5CCN(C(=O)CN6CCC(c7ccc(N[C@H]8CCC(=O)NC8=O)cc7F)CC6)CC5)nc4)c(=O)c3c2)c1C#N [Example 122, 6-[2-cyano-3-[[2,2-difluoroethyl(methyl)sulfamoyl]amino]-6-fluorophenoxy]-3-[2-[4-[2-[4-[4-[[(3S)-2,6-dioxopiperidin-3-yl]amino]-2-fluorophenyl]piperidin-1-yl]acetyl]piperazin-1-yl]pyrimidin-5-yl]-4-oxoquinazoline] | 27.1 | 8.26
10 | N#Cc1c(NS(=O)(=O)N2CCC(F)(F)C2)ccc(F)c1Oc1ccc2ncn(-c3cnc(N4CCN(C(=O)CN5CCC(c6ccc(N[C@@H]7CCC(=O)NC7=O)cc6F)CC5)CC4)nc3)c(=O)c2c1 [Example 123, N-[2-cyano-3-[3-[2-[4-[2-[4-[4-[[(3R)-2,6-dioxopiperidin-3-yl]amino]-2-fluorophenyl]piperidin-1-yl]acetyl]piperazin-1-yl]pyrimidin-5-yl]-4-oxoquinazolin-6-yl]oxy-4-fluorophenyl]-3,3-difluoropyrrolidine-1-sulfonamide] | 50.7 | 14

Continued, values first:

Row | DC50 [nM] | Emax [%] | SMILES
11 | 12.5 | 9.04 | N#Cc1c(NS(=O)(=O)C2CCCC2)ccc(F)c1Oc1ccc2ncn(-c3cnc(N4CCN(C(=O)CN5CCC(c6ccc(N[C@H]7CCC(=O)NC7=O)cc6F)CC5)CC4)nc3)c(=O)c2c1 [Example 109, N-[2-cyano-3-[3-[2-[4-[2-[4-[4-[[(3S)-2,6-dioxopiperidin-3-yl]amino]-2-fluorophenyl]piperidin-1-yl]acetyl]piperazin-1-yl]pyrimidin-5-yl]-4-oxoquinazolin-6-yl]oxy-4-fluorophenyl]cyclopentanesulfonamide]
12 | 6.47 | 8.79 | CC(C)S(=O)(=O)Nc1ccc(F)c(Oc2ccc3ncn(-c4cnc(N5CCN(C(=O)CN6CCC(c7ccc(N[C@H]8CCC(=O)NC8=O)cc7F)CC6)CC5)nc4)c(=O)c3c2)c1C#N [Example 112, N-[2-cyano-3-[3-[2-[4-[2-[4-[4-[[(3S)-2,6-dioxopiperidin-3-yl]amino]-2-fluorophenyl]piperidin-1-yl]acetyl]piperazin-1-yl]pyrimidin-5-yl]-4-oxoquinazolin-6-yl]oxy-4-fluorophenyl]propane-2-sulfonamide]
13 | 8.33 | 9.6 | N#Cc1c(NS(=O)(=O)C2CC2)ccc(F)c1Oc1ccc2ncn(-c3cnc(N4CCN(C(=O)CN5CCC(c6ccc(N[C@H]7CCC(=O)NC7=O)cc6F)CC5)CC4)nc3)c(=O)c2c1 [Example 114, N-[2-cyano-3-[3-[2-[4-[2-[4-[4-[[(3S)-2,6-dioxopiperidin-3-yl]amino]-2-fluorophenyl]piperidin-1-yl]acetyl]piperazin-1-yl]pyrimidin-5-yl]-4-oxoquinazolin-6-yl]oxy-4-fluorophenyl]cyclopropanesulfonamide]
14 | 13.8 | 11.6 | CN(CCF)S(=O)(=O)Nc1ccc(F)c(Oc2ccc3ncn(-c4cnc(N5CCN(C(=O)CN6CCC(c7ccc(N[C@@H]8CCC(=O)NC8=O)cc7F)CC6)CC5)nc4)c(=O)c3c2)c1C#N [Example 120, 6-[2-cyano-6-fluoro-3-[[2-fluoroethyl(methyl)sulfamoyl]amino]phenoxy]-3-[2-[4-[2-[4-[4-[[(3R)-2,6-dioxopiperidin-3-yl]amino]-2-fluorophenyl]piperidin-1-yl]acetyl]piperazin-1-yl]pyrimidin-5-yl]-4-oxoquinazoline]
15 | 14.6 | 7.8 | CN(CCF)S(=O)(=O)Nc1ccc(F)c(Oc2ccc3ncn(-c4cnc(N5CCN(C(=O)CN6CCC(c7ccc(N[C@H]8CCC(=O)NC8=O)cc7F)CC6)CC5)nc4)c(=O)c3c2)c1C#N [Example 121, 6-[2-cyano-6-fluoro-3-[[2-fluoroethyl(methyl)sulfamoyl]amino]phenoxy]-3-[2-[4-[2-[4-[4-[[(3S)-2,6-dioxopiperidin-3-yl]amino]-2-fluorophenyl]piperidin-1-yl]acetyl]piperazin-1-yl]pyrimidin-5-yl]-4-oxoquinazoline]
16 | 15.7 | 12 | N#Cc1c(NS(=O)(=O)N2CC[C@@H](F)C2)ccc(F)c1Oc1ccc2ncn(-c3cnc(N4CCN(C(=O)CN5CCC(c6ccc(N[C@@H]7CCC(=O)NC7=O)cc6F)CC5)CC4)nc3)c(=O)c2c1 [Example 124, (3R)—N-[2-cyano-3-[3-[2-[4-[2-[4-[4-[[(3R)-2,6-dioxopiperidin-3-yl]amino]-2-fluorophenyl]piperidin-1-yl]acetyl]piperazin-1-yl]pyrimidin-5-yl]-4-oxoquinazolin-6-yl]oxy-4-fluorophenyl]-3-fluoropyrrolidine-1-sulfonamide]
17 | 15.7 | 12.6 | N#Cc1c(NS(=O)(=O)N2CCC2)ccc(F)c1Oc1ccc2ncn(-c3cnc(N4CCN(C(=O)CN5CCC(c6ccc(N[C@@H]7CCC(=O)NC7=O)cc6F)CC5)CC4)nc3)c(=O)c2c1 [Example 125, N-[2-cyano-3-[3-[2-[4-[2-[4-[4-[[(3R)-2,6-dioxopiperidin-3-yl]amino]-2-fluorophenyl]piperidin-1-yl]acetyl]piperazin-1-yl]pyrimidin-5-yl]-4-oxoquinazolin-6-yl]oxy-4-fluorophenyl]azetidine-1-sulfonamide]
